The source made the active and inactive calls. No cut-off for these calls is given here.
Tests used:
AHH-1 [1] = assay: Cytotoxicity against human AHH-1 cells incubated for 24 to 96 hrs by CCK-8 assay; assay type: functional, cell-based
[2] = Cytotoxicity against HUVEC incubated for 24 to 96 hrs by CCK-8 assay; assay type: toxicity, cell-based; conditions: human, HUVEC cells
AHH-1 [3] = assay: Antiradiation activity in human AHH-1 cells assessed as increase in cell viability at 2.5 to 10 micromol/L pre-treated with compound for 24 hrs followed by irradiation at 4 Gy measured after 24 hrs by CCK-8 assay; assay type: functional, cell-based; conditions: dose 2.5-10 µmol/L, time 48.0 hrs
AHH-1 [4] = assay: Antiradiation activity in human AHH-1 cells assessed as increase in cell viability at 2.5 micromol/L pre-treated with compound for 24 hrs followed by irradiation at 4 Gy measured after 24 hrs by CCK-8 assay; assay type: functional, cell-based; conditions: dose 2.5 µmol/L, time 48.0 hrs
HUVEC [5] = assay: Antiradiation activity in human HUVEC assessed as cell viability at 5 to 20 micromol/L pre-treated with compound for 24 hrs followed by irradiation at 6 Gy measured after 96 hrs by CCK-8 assay; assay type: functional, cell-based; conditions: dose 5-20 µmol/L, time 120.0 hrs
Mus musculus [6] = assay: Radioprotective activity in male C57BL/6J mouse assessed as survival rate at 250 mg/kg, ip pre-treated with compound for 24.25 hrs followed by irradiation at 8.5 Gy and measured for 30 days post irradiation relative to control; assay type: functional; conditions: time 744.25 hrs
Mus musculus [7] = assay: Radioprotective activity in male C57BL/6J mouse assessed as increase in body weight at 250 mg/kg, ip pre-treated with compound for 24.25 hrs followed by irradiation at 8.5 Gy and measured on day 1 post irradiation; assay type: functional, organism-based; conditions: time 48.25 hrs
Mus musculus [8] = assay: Radioprotective activity in male C57BL/6J mouse assessed as increase in body weight at 250 mg/kg, ip pre-treated with compound for 24.25 hrs followed by irradiation at 8.5 Gy and measured on day 18 post irradiation; assay type: functional, organism-based; conditions: time 456.25 hrs
Mus musculus [9] = assay: Radioprotective activity in male C57BL/6J mouse assessed as increase in cell growth at 250 to 300 mg/kg, ip pre-treated with compound for 24.25 hrs followed by irradiation at 6.5 Gy and measured on 30 day post irradiation; assay type: functional, organism-based; conditions: dose 250-300 mg/kg, time 744.25 hrs
Mus musculus [10] = assay: Radioprotective activity in male C57BL/6J mouse assessed as time required to increase in WBC count at 250 mg/kg, ip pre-treated with compound for 24.25 hrs followed by irradiation at 6.5 Gy and measured on 30 day post irradiation; assay type: functional; conditions: time 744.25 hrs
Mus musculus [11] = assay: Radioprotective activity in male C57BL/6J mouse assessed as time required to increase in RBC count at 250 mg/kg, ip pre-treated with compound for 24.25 hrs followed by irradiation at 6.5 Gy and measured on 30 day post irradiation; assay type: functional; conditions: time 744.25 hrs
Mus musculus [12] = assay: Radioprotective activity in male C57BL/6J mouse assessed as time required to increase in neutrophil count at 250 mg/kg, ip pre-treated with compound for 24.25 hrs followed by irradiation at 6.5 Gy and measured on 30 day post irradiation; assay type: functional; conditions: time 744.25 hrs
Mus musculus [13] = assay: Radioprotective activity in male C57BL/6J mouse assessed as time required to increase in platelets at 250 mg/kg, ip pre-treated with compound for 24.25 hrs followed by irradiation at 6.5 Gy and measured on 30 day post irradiation; assay type: functional; conditions: time 744.25 hrs
Mus musculus [14] = assay: Radioprotective activity in male C57BL/6J mouse assessed as increase in crypts villus length in mouse jejunum at 250 mg/kg, ip pre-treated with compound for 24.25 hrs followed by irradiation at 13 Gy and measured on 3.5 day post irradiation; assay type: functional, organism-based; conditions: time 108.25 hrs
Mus musculus [15] = assay: Radioprotective activity in male C57BL/6J mouse assessed as attenuation of spleen atrophy at 250 mg/kg, ip pre-treated with compound for 24.25 hrs followed by irradiation at 13 Gy and measured on 3.5 day post irradiation; assay type: functional, organism-based; conditions: time 108.25 hrs
AHH-1 [16] = assay: Induction of apoptosis in human AHH-1 cells assessed as viable cells pre-treated with compound for 24 hrs followed by irradiation at 6 Gy and measured after 24 hrs by Annexin V-FITC/PI staining based Flow cytometry analysis (reference value: 83.6%); assay type: functional; conditions: time 48 hrs
AHH-1 [17] = assay: Induction of apoptosis in human AHH-1 cells assessed as early apoptotic cells pre-treated with compound for 24 hrs followed by irradiation at 6 Gy and measured after 24 hrs by Annexin V-FITC/PI staining based Flow cytometry analysis (reference value: 8.15%); assay type: functional; conditions: time 48 hrs
AHH-1 [18] = assay: Induction of apoptosis in human AHH-1 cells assessed as late apoptotic cells pre-treated with compound for 24 hrs followed by irradiation at 6 Gy and measured after 24 hrs by Annexin V-FITC/PI staining based Flow cytometry analysis (reference value: 2.65%); assay type: functional; conditions: time 48 hrs
AHH-1 [19] = assay: Induction of apoptosis in human AHH-1 cells assessed as necrotic cells pre-treated with compound for 24 hrs followed by irradiation at 6 Gy and measured after 24 hrs by Annexin V-FITC/PI staining based Flow cytometry analysis (reference value: 5.37%); assay type: functional; conditions: time 48 hrs
AHH-1 [20] = assay: Radioprotective activity against 6 Gy radiation-induced DNA damage in human AHH-1 cells assessed as attenuation of gamma-H2AX expression incubated for 0.5 to 2 hrs by immunohistochemical staining based confocal fluorescence microscopic analysis; assay type: functional, cell-based; conditions: time 0.5-2 hrs
AHH-1 [21] = assay: Induction of DNA damage repair activity in 6 Gy radiation-induced human AHH-1 cells assessed as downregulation of Bax level pre-treated with compound for 24 hrs followed by irradiation by Co-immunoprecipitation analysis; assay type: functional, cell-based
AHH-1 [22] = assay: Induction of DNA damage repair activity in 6 Gy radiation-induced human AHH-1 cells assessed as downregulation of P53 level pre-treated with compound for 24 hrs followed by irradiation by Co-immunoprecipitation analysis; assay type: functional, cell-based
HUVEC [23] = assay: Upregulation of MyD88 expression in HUVEC incubated for 24 hrs in presence of irradiation by Co-immunoprecipitation analysis; assay type: functional, cell-based; conditions: Homo sapiens
HUVEC [24] = assay: Upregulation of P65 expression in HUVEC incubated for 24 hrs in presence of irradiation by Co-immunoprecipitation analysis; assay type: functional, cell-based; conditions: Homo sapiens
HUVEC [25] = assay: Upregulation of IL-6 secretion in HUVEC at 20 to 80 uM incubated for 24 hrs in presence of irradiation by ELISA; assay type: functional, cell-based; conditions: Homo sapiens, dose 20-80 µM
Toll-like receptor 2 [26] = target: T1, Toll-like receptor 2 (Homo sapiens, UniProt O60603); assay: Binding affinity to TLR2 (unknown origin) assessed as dissociation constant by SPR analysis
Toll-like receptor 2 [27] = target: T1, Toll-like receptor 2; assay: Binding affinity to TLR2 (unknown origin) by SPR analysis; conditions: filed as modulator, dose 312.5-10000 nM
AHH-1 [28] = assay: Antiradiation activity in human AHH-1 cells assessed as increase in cell viability at 2.5 to 10 micromol/L pre-treated with compound for 24 hrs followed by irradiation at 6 Gy measured after 24 hrs by CCK-8 assay; assay type: functional, cell-based; conditions: dose 2.5-10 µmol/L, time 48.0 hrs
AHH-1 [29] = assay: Antiradiation activity in human AHH-1 cells assessed as increase in cell viability at 2.5 to 10 micromol/L pre-treated with compound for 24 hrs followed by irradiation at 8 Gy measured after 24 hrs by CCK-8 assay; assay type: functional, cell-based; conditions: dose 2.5-10 µmol/L, time 48.0 hrs
AHH-1 [30] = assay: Antiradiation activity in human AHH-1 cells assessed as increase in cell viability at 2.5 micromol/L pre-treated with compound for 24 hrs followed by irradiation at 6 Gy measured after 24 hrs by CCK-8 assay; assay type: functional, cell-based; conditions: dose 2.5 µmol/L, time 48.0 hrs
AHH-1 [31] = assay: Antiradiation activity in human AHH-1 cells assessed as increase in cell viability at 2.5 micromol/L pre-treated with compound for 24 hrs followed by irradiation at 8 Gy measured after 24 hrs by CCK-8 assay; assay type: functional, cell-based; conditions: dose 2.5 µmol/L, time 48.0 hrs
HUVEC [32] = assay: Antiradiation activity in human HUVEC assessed as cell viability at 5 to 20 micromol/L pre-treated with compound for 24 hrs followed by irradiation at 8 Gy measured after 96 hrs by CCK-8 assay; assay type: functional, cell-based; conditions: dose 5-20 µmol/L, time 120.0 hrs

T1 sequence (O60603 whole entry): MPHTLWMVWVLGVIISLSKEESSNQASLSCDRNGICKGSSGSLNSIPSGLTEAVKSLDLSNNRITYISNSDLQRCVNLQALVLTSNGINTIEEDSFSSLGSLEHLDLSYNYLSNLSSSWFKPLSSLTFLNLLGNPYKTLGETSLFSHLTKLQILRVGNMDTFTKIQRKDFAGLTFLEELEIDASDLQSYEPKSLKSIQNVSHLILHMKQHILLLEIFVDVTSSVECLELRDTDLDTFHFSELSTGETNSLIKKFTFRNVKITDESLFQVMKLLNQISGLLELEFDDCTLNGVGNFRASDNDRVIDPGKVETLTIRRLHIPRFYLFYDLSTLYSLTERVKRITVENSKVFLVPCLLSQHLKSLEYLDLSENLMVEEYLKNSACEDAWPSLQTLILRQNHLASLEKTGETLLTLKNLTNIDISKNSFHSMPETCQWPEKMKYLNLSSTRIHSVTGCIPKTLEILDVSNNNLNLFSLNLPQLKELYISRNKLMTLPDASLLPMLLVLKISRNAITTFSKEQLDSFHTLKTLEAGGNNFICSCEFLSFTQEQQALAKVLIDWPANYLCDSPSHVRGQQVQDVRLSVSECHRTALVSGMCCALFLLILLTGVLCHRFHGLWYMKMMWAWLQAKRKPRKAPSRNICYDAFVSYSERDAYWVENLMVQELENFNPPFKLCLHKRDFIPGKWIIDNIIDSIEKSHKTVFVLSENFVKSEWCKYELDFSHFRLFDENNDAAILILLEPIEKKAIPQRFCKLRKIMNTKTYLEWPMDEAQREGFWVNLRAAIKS

## N#Cc1ccc(CS(=O)(=O)c2cnc3ccccc3n2)cc1
AHH-1 [1]
  IC50: > 60 µM
[2]
  IC50: > 60 µM
AHH-1 [3]
  Activity: Active
AHH-1 [4]
  Activity: Active
HUVEC [5]
  Activity: Active
Mus musculus [6]
  Activity: 100%
Mus musculus [7]
  Activity: inactive
Mus musculus [8]
  Activity: Active; Compound Showed Significant Regaining Effect
Mus musculus [9]
  Activity: Active
Mus musculus [10]
  Time: 10 days
Mus musculus [11]
  Time: 14 days
Mus musculus [12]
  Time: 14 days
Mus musculus [13]
  Time: 14 days
Mus musculus [14]
  Activity: Active
Mus musculus [15]
  Activity: Active
AHH-1 [16]
  Activity: 72%
AHH-1 [17]
  Activity: 13.1%
AHH-1 [18]
  Activity: 6.07%
AHH-1 [19]
  Activity: 8.81%
AHH-1 [20]
  Activity: Active
AHH-1 [21]
  Activity: Active
AHH-1 [22]
  Activity: Active
HUVEC [23]
  Activity: Active
HUVEC [24]
  Activity: Active
HUVEC [25]
  Activity: Active
Toll-like receptor 2 [26]
  Kd: 3.93 µM
Toll-like receptor 2 [27]
  Activity: Dose-dependent-effect
AHH-1 [28]
  Activity: Active
AHH-1 [29]
  Activity: Active
AHH-1 [30]
  Activity: Active
AHH-1 [31]
  Activity: Active
HUVEC [32]
  Activity: Active

— ChEMBL document CHEMBL6177953, “Discovery of a novel quinoxaline derivative modulator via a dual P53/TLR2 targeting strategy for the alleviation of radiation damage” (Eur J Med Chem, 2025)
